Values quoted from earlier work in patent US9046534B2, “Methods and systems for identifying and treating anti-progestin sensitive tumors” (INVIVIS PHARMACEUTICALS INC., priority 2011, dated 2015).

Key:
[1] = human subjects; an increase is an undesirable side-effect for breast cancer therapy
PR = molecular target: T1, PR (Homo sapiens, UniProt P06401); details: in vitro systems; aggregates produced by an artificial ligand bound to the PR
T1 sequence (P06401 1-933): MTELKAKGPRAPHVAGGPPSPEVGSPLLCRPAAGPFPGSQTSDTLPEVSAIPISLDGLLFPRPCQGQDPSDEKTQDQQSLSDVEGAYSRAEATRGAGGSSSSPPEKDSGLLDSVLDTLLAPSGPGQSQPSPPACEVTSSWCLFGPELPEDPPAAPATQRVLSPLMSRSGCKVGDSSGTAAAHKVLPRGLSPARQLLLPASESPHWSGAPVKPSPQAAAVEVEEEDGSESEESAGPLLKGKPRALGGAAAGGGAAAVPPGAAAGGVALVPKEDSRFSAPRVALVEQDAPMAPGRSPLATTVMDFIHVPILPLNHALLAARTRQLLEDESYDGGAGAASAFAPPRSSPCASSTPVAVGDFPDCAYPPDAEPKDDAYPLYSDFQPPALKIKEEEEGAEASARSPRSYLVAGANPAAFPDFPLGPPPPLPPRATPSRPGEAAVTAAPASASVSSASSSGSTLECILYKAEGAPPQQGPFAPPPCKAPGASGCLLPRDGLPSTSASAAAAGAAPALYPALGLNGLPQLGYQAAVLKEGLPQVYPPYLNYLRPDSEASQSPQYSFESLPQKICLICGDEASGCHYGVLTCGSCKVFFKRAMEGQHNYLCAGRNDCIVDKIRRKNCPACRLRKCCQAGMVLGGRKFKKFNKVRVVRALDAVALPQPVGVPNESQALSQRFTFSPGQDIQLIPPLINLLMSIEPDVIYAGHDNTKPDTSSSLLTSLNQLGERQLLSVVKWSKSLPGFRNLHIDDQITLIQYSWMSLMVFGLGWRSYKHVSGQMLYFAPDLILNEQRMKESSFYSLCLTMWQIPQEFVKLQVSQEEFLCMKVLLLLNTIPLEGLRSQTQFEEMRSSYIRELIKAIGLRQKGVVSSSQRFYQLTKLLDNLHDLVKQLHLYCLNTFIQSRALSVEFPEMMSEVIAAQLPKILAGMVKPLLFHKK

[2] = tested on: progesterone responsive genes; details: compared with progestins and other anti-progestins, which activate progesterone responsive genes
advanced breast cancer = details: 101 poor prognosis patients with advanced breast cancer, progressed despite prior hormonal therapy (tamoxifen)
breast cancer = details: first line hormone treatment, small breast cancer study

CN(C)c1ccc([C@H]2C[C@]3(C)[C@@H](CC[C@]3(O)CCCO)C3CCC4=CC(=O)CCC4=C32)cc1 (stereo in doubt) [Onapristone, (8S,11R,13R,14S,17S)-11-[4-(dimethylamino)phenyl]-17-hydroxy-17-(3-hydroxypropyl)-13-methyl-1,2,6,7,8,11,12,14,15,16-decahydrocyclopenta[a]phenanthren-3-one]
effect on estrogen secretion [1]: does not increase estrogen secretion | effect on PR nuclear aggregates (PR): reverse the PR nuclear aggregates | activation of progesterone responsive genes (number of genes activated) [2]: 3 genes | response rate (advanced breast cancer): 10% | objective response rate (breast cancer): 56%
